Active and inactive are the calls of the source.
Key:
Protein RecA = target: T1, Protein RecA (Mycobacterium tuberculosis, UniProt P9WHJ3); assay: Fluorescence Cell-Free Homogeneous Dose Retest to Identify Inhibitors of RecA-Intein Splicing Activity. [Related pubchem assays (depositor defined):AID2097, AID2223, AID489010, AID492950]; assay type: functional
T1 sequence (P9WHJ3 whole entry): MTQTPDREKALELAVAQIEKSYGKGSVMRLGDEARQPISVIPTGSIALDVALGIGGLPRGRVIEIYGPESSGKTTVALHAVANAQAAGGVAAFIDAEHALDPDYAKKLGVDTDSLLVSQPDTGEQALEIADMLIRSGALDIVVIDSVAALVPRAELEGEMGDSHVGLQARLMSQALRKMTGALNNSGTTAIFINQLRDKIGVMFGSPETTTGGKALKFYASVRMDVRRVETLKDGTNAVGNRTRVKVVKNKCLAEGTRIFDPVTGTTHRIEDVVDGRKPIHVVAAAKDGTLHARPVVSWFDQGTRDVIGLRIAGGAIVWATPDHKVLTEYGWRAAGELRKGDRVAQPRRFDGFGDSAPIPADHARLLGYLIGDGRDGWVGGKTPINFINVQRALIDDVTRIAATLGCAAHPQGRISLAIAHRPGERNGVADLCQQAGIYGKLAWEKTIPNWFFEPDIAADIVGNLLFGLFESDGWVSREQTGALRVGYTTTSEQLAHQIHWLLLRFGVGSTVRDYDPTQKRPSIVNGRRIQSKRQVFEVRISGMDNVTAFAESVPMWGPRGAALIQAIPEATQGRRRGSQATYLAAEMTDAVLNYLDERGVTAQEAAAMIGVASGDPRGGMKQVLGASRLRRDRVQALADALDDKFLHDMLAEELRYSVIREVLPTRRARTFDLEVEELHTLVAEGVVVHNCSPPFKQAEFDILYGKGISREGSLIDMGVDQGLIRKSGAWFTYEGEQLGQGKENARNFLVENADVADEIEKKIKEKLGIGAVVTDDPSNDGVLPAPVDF

Transthyretin = Transthyretin (Homo sapiens, UniProt P02766); assay: Luminescence-based cell-based high throughput dose response assay to identify activators of Transthyretin (TTR) transcription.; assay type: functional
[1] = target: T2, Replicative DNA helicase DnaB (Mycobacterium tuberculosis, UniProt P9WMR3); assay: DnaB intein splicing inhibitors, dose response, biochemical, cell-free fluorescence (AID 449749); assay type: functional
T2 sequence (P9WMR3 whole entry): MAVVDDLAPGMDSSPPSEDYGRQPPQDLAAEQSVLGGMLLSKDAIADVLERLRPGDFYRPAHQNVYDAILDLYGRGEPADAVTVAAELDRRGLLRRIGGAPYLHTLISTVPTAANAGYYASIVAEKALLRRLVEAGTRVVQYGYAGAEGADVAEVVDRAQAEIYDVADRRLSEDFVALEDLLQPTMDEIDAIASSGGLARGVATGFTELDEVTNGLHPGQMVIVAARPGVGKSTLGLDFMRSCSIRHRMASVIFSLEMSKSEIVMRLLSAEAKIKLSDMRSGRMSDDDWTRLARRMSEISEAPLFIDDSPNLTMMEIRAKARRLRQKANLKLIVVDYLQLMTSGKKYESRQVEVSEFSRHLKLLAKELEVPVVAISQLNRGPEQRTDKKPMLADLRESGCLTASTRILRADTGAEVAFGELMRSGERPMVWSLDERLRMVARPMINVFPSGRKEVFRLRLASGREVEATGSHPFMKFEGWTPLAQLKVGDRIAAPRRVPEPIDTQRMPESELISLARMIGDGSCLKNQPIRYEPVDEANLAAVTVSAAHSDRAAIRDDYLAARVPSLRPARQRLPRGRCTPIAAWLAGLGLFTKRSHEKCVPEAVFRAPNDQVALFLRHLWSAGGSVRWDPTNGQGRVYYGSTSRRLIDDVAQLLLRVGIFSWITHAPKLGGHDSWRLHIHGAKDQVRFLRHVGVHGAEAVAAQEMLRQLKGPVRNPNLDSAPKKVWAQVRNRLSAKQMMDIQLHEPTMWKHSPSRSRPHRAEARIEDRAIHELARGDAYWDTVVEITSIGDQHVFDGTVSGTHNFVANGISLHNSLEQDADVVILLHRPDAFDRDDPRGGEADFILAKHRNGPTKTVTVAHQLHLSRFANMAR

[2] = target: E3 ubiquitin-protein ligase Mdm2 (Homo sapiens, UniProt Q00987); assay: MDM2-luc reporter signal enhancers, multi-concentration potency testing, MDM2 ubiquitin-protein ligase inhibitor program, whole-cell format, luminescence detection, 384-well microplate (AID 1394); assay type: functional;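 further: MDM2 E3 inhibitors raise luminescence so EC50 is for signal enhancement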
[3] = viability inhibitors of stage V gametocytes – luminescence, dose response (AID 1117278); assay type: functional, cell-based;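 further: gametocytes exposed to compound for 24 hours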
[4] = viability loss in human Jurkat cells – cell-based, luminescence, cytotoxicity control for P. falciparum gametocyte viability project, dose response (AID 1117277); assay type: functional;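 further: potency reflects loss of cellular ATP meaning fewer viable cells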
[5] = target: Voltage-gated inwardly rectifying potassium channel KCNH2 (Homo sapiens, UniProt Q12809); assay: concentration-dependent hERG rescue from blockers – cell-based, thallium flux, dose response (AID 2121); assay type: ADME
Bcl-2-related protein A1 [6] = target: T3, Bcl-2-related protein A1 (Mus musculus, UniProt Q07440); assay: small-molecule antagonists of Bfl-1/BH3 interaction – biochemical, TR-FRET, mouse Bfl-1, confirmation (AID 621);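 further: TR-FRET binding of GST-Bfl-1 to FITC-labelled Bid peptide via terbium antibody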
T3 sequence (Q07440 whole entry): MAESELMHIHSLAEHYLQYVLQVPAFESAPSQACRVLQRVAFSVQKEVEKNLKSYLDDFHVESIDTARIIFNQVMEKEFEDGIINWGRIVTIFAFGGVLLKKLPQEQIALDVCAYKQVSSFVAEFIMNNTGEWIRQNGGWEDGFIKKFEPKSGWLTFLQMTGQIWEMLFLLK

Bcl-2-related protein A1 [7] = target: T3, Bcl-2-related protein A1; assay: displacement of Bid BH3 peptide from Bfl-1 – biochemical, fluorescence polarization, FITC-Bid, mouse, primary screen (AID 432)

Sequence of Voltage-gated inwardly rectifying potassium channel KCNH2 (Q12809 whole entry): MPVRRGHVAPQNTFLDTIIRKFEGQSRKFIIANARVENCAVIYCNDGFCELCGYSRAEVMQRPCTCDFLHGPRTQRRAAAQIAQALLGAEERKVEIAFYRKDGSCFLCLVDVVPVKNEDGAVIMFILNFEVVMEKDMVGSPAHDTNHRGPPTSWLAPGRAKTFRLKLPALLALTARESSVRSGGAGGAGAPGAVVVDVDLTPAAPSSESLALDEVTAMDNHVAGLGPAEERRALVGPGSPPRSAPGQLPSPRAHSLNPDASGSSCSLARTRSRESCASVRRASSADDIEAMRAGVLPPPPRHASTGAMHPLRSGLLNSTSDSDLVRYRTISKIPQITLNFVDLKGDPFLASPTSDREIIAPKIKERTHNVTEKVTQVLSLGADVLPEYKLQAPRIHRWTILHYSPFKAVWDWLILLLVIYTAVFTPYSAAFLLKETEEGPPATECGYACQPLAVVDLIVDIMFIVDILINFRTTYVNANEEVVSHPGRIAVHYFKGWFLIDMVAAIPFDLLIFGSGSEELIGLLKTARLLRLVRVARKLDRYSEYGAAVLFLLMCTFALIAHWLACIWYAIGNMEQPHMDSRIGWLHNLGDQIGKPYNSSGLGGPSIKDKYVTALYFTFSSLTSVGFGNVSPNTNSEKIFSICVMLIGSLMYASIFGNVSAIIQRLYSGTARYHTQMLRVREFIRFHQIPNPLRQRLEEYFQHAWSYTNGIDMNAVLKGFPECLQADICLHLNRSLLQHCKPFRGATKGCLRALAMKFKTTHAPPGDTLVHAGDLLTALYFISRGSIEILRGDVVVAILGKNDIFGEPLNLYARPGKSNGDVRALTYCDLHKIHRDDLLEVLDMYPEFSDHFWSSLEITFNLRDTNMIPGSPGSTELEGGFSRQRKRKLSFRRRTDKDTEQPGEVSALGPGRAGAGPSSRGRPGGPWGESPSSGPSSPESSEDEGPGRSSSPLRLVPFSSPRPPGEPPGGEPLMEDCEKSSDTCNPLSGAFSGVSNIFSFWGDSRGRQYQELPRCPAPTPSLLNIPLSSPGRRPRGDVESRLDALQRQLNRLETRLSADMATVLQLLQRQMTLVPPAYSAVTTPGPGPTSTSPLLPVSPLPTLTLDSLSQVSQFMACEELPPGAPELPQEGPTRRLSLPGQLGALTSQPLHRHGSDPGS
Sequence of E3 ubiquitin-protein ligase Mdm2 (Q00987 whole entry): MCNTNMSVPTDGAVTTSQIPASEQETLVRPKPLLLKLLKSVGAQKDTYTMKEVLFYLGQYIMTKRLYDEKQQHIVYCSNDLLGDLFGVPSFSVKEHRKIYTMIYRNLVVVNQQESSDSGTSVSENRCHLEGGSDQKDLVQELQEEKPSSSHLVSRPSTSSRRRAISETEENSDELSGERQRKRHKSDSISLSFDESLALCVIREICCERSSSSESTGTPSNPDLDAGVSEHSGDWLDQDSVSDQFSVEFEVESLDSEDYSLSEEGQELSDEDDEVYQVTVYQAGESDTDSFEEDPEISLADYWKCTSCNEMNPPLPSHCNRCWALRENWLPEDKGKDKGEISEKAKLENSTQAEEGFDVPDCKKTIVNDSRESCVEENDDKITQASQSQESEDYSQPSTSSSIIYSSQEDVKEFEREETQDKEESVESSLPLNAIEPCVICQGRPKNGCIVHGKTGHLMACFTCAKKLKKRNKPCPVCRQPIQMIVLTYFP

## COc1ccc2[nH]c3c(Cl)ncnc3c2c1
Protein RecA
  EC50: > 380 µM (inactive)
Transthyretin
  EC50: > 167 µM (inactive)
[1]
  AC50: > 380 µM (inactive)

## CC(=O)Nc1ccc(S(=O)(=O)N2CCN=C2SCc2cccnc2)cc1
[2]
  EC50: 9.39 µM (not active)

## NC(=O)C1CCN(C(=O)CN2CCc3ccccc32)CC1
[3]
  IC50: > 109 µM (inactive)
[4]
  IC50: > 83.3 µM (inactive)

## COc1ccc(C(=O)NNC(=O)C(=O)Nc2ccc(C)c(Cl)c2)cc1
[5]
  EC50: 0.06 µM (active)

## Cc1nn(C)c(C)c1NC(=O)CSc1nc(-c2ccccc2F)nc2c1cnn2-c1ccccc1
Bcl-2-related protein A1 [6]
  IC50: > 100 µM (not active)
Bcl-2-related protein A1 [7]
  IC50: > 100 µM (not active)

— ChEMBL document CHEMBL1201862, “PubChem BioAssay data set” (2004)
